{
  "source": "paper PMC4640066",
  "about": "(Nature Communications, 2015)",
  "key": {"[1]": {"tested_on": "γ-tubulin-dependent, centrosome-induced aster formation", "test": "Centrosome (sperm nuclei)-induced aster formation in Xenopus egg extracts", "type": "biochemical", "conditions": "Xenopus extracts with sperm nuclei, 30 min at 20 °C", "description": "Cytostatic factor (CSF)-arrested M phase Xenopus egg extracts (CSF extracts) were prepared. Briefly, unfertilized eggs were crushed by 10,700g centrifugation for 20 min. M phase extracts were mixed with 0.5 μM Cy3-labelled α/β-tubulin and various concentrations of compounds. After incubation for 30 min on ice, 15 μM RanQ69L, 200 sperm nuclei per μl or 5% DMSO were added and incubated for 30 min on ice. […]\n(a) The efficiency of γ-tubulin depletion in Xenopus extracts was confirmed by immunoblotting. […] The depletion efficiency was calculated with ImageJ and was approx. 80%. […]\nScale bars, 5 μm. […] Aster formation was analyzed by fluorescence microscopy. […] Asters (Fig. 1e and Supplementary Figure 4c) in 10 randomly selected fields were counted per slide with a 10× objective; each sample had four slides. […]\nError bars represent S.D. Two-tailed, paired Student’s t-test was used to obtain P values. […] (e) Quantification of the radius of RanQ69L-induced asters from Fig. 1e and Supplementary Figure 4c. To gauge the impact upon the radius of the asters, n = 20 asters were quantified per sample per experiment. […]"}, "HeLa cells [2]": {"tested_on": "HeLa cells", "test": "MT nucleation (regrowth) assay, HeLa cells", "type": "cell-based, human", "conditions": "30 μM, MT regrowth 1 min, EB1 area", "description": "HeLa and U2OS cells were cultured in DMEM+GlutaMAX (Gibco) supplemented with 10% fetal bovine serum (FBS), 100 U ml^−1 penicillin, 100 μg ml^−1 streptomycin and 1 mM sodium pyruvate in a humidified atmosphere containing 5% CO2. RPE-1 cells were cultured in DMEM/F-12 (Gibco) supplemented with 10% FBS, 2 mM L-glutamine, 100 U ml^−1 penicillin, 100 μg ml^−1 streptomycin, 1 mM sodium pyruvate containing 10% FBS in a humidified atmosphere containing 5% CO2.\nTo depolymerize MTs, interphase cells were treated with 10 μM of nocodazole for 3 h, washed with cold medium and incubated on ice for 1 h. Mitotic cells were treated with 10 μM of STLC for 6 h, washed with cold medium and incubated on ice for 1 h. Subsequently, both cells were incubated in medium containing 1% DMSO or 30 μM of gatastatin for 10 min on ice. Cells were then put in warmed medium containing either 1% DMSO or 30 μM of gatastatin and were incubated at 37 °C (interphase cells) or 20 °C (mitotic cells) for 1 min. The cells were immediately fixed with cold MeOH (−20 °C).\nAfter blocking with PBS containing 0.5% bovine serum albumin, cells were incubated with anti-EB1 antibody (1:500 dilution, Abcam, Cat# ab53358), anti-α-tubulin antibody (1:500 dilution, Sigma, Cat# T9026) and anti-pericentrin antibody (1:2,000 dilution, Abcam, Cat# ab4448). […]"}, "HeLa cells [3]": {"tested_on": "HeLa cells", "test": "Transition from S phase to mitotic entry and spindle formation", "type": "cell-based, human", "conditions": "30 μM", "description": "Cells expressing EGFP-α-tubulin and mCherry-H2B were prepared as described previously. Cells were arrested at the S phase with 2-mM thymidine treatment for 15 h. To determine the time required for mitotic entry from S phase release, thymidine was removed by washing cells with PBS three times. After treatment with 30 μM gatastatin for 9 h, time-lapse analysis was performed using DeltaVision Olympus IX71 microscope (Applied Precision) equipped with CoolSNAP HQ camera (Photometrics). Images were taken every 6 min with 12 z-stack (1 μm per stack). During live cell imaging, cells were maintained at 37 °C and were supplied with 5% CO2. The timing of the mitotic entry was defined by the chromosome condensation after nuclear envelope breakdown."}},
  "data": [
    {"smiles": "COc1cc2c(=O)c(-c3cc(OC)c4c(c3OC)OCO4)coc2cc1OCc1ccccc1", "note": "[Gatastatin, O^7-demethylbenzyl AG1]", "values": [
      {"measurement": "Effect on centrosome-induced aster formation", "setting": "[1]", "result": "nearly completely inhibited"},
      {"measurement": "Effect on MT nucleation activity of interphase and mitotic centrosomes", "setting": "HeLa cells [2]", "result": "inhibited MT nucleation activity"},
      {"measurement": "Mitotic cells with abnormal bipolar spindles with misaligned chromosomes", "setting": "HeLa cells [3]; HeLa cells released from S phase (thymidine)", "result": "~80", "unit": "%"},
      {"measurement": "Timing of mitotic entry versus DMSO", "setting": "HeLa cells [3]; HeLa released from S phase", "result": "virtually identical"}
    ]}
  ]
}
